Measured values from ChEMBL document CHEMBL2150849, “Sesquiterpenoids from the mangrove-derived endophytic fungus Diaporthe sp” (J Nat Prod, 2012).
Calls of active or inactive are those of the source.

Columns and labels:
Format in all cases: functional, cell-based
MCF7 = experiment: Cytotoxicity against human MCF7 cells at 20 uM by MTT assay
SGC-7901 = experiment: Cytotoxicity against human SGC7901 cells at 20 uM by MTT assay
QGY7701 = experiment: Cytotoxicity against human QGY7701 cells at 20 uM by MTT assay
A549 = experiment: Cytotoxicity against human A549 cells at 20 uM by MTT assay

Measured: Activity

CC1=C(CO)[C@@]2(C)CC[C@H](O)C(C)(C)[C@@H]2CC1=O
inactive: MCF7 | SGC-7901 | QGY7701 | A549

CC1=C(CO)[C@@]2(C)C[C@@H](O)CC(C)(C)[C@@H]2CC1=O
inactive: MCF7 | SGC-7901 | QGY7701 | A549

CC1=C(CO)[C@@]2(C)CCCC(C)(C)[C@@H]2C[C@H]1O
inactive: MCF7 | SGC-7901 | QGY7701 | A549

CC1=C(CO)[C@@]2(C)CCC[C@@](C)(CO)[C@@H]2CC1=O
inactive: MCF7 | SGC-7901 | QGY7701 | A549

C[C@]1(CO)CCC[C@]2(C)[C@@H](CO)[C@](C)(O)CC[C@@H]12
inactive: MCF7 | SGC-7901 | QGY7701 | A549

CC(C)(O)[C@]12CCC3=C(COC3=O)[C@@]1(C)CCC(=O)O2
inactive: MCF7 | SGC-7901 | QGY7701 | A549

CC1=C[C@@H]2C[C@H](C)C[C@H](C)[C@H]2[C@](C)(C(=O)CCO)[C@@H]1C(=O)O
inactive: MCF7 | SGC-7901 | QGY7701 | A549

CC1(C)[C@@H](O)CC[C@]2(C)C3=C(CC[C@@H]12)C(=O)OC3
inactive: MCF7 | SGC-7901 | QGY7701 | A549

CC1(C)CCC[C@]2(C)[C@@H](C(=O)O)[C@](C)(O)CC[C@@H]12
inactive: MCF7 | SGC-7901 | QGY7701 | A549

CC1(C)C(=O)CC[C@]2(C)[C@@H](CO)[C@](C)(O)CC[C@@]12O
inactive: MCF7 | SGC-7901 | QGY7701 | A549

CC1(C)CC(=O)C[C@]2(C)[C@@H](CO)[C@](C)(O)CC[C@@H]12
inactive: MCF7 | SGC-7901 | QGY7701 | A549
